From US20130288982A1, “THERAPEUTIC AGENT FOR PULMONARY SMALL CELL CARCINOMA” (TOKYO WOMEN'S MEDICAL UNIVERSITY, priority 2009, published 2013)
No end group written: not given here.

How the values were obtained:
[1] = test system: human pulmonary small cell carcinoma cell line RERF-LC-MA; test: Inhibition of proliferation of cancer cells (XTT based Cell Proliferation Kit), RERF-LC-MA; conditions: peptide added at 5 μg/mL or 10 μg/m, incubation at 37° C. for three days; p=0.031 vs scrambled peptide control
Protocol: (§1) The human pulmonary small cell carcinoma cell line RERF-LC-MA, the human prostate cancer cell line PC-3, and the human breast cancer cell line MCF-7 were used as the cancer cells.
(§2) A 96-well plate was inoculated with the above-mentioned cells at a density of 0.6×10^3 to 1.0×10^3 cells per well, and then cultured at 37° C. for three days. Then, cell proliferation was quantified using the Cell Proliferation Kit (XTT based).
(§3) Next, the above-mentioned peptides were separately added to the culture system at concentrations of 0 μg/mL, 1 μg/mL, 5 μg/mL and 10 μg/m, followed by incubation at 37° C. for three days. After completion of the incubation, the number of cancer cells was counted.

[2] = test system: mRNA of the VEGFR1, RECK, MMP9 and MMP14 in the osteoclasts; test: mRNA expression of molecule groups in osteoclasts by qPCR; format: cell-based; conditions: peptide A vs scrambled peptide, 24 hours after addition
Protocol: (§4) The peptides were added to the cancer cells and osteoclasts to determine a change in the expression of each molecular group resulting from the interaction between the peptide and the cancer cells or between the peptide and osteoclasts by confirming the expression of mRNA using quantitative polymerase chain reaction (qPCR).
The following molecule groups were used which are expressed in the cancer cells and/or osteoclasts as reported in Yoko Morioka et al.: “The roles of MMPs and RECK in cancer progression”, Cell Technology. Vol. 28, No. 7, 659-679 (2009).
(§5) The cancer cells and the osteoclasts were separately inoculated into a 6-well plate at a density of 1×10^5 to 2×10^5 cells per well. Twenty-four hours later, the medium was changed to D-MEM (1% FCS, 2 mM L-glu). Another 24 hours later, the medium was changed, and at the same time the peptide A or the control was added. After 24 hours, the cells were collected and extraction of the RNA was conducted.

[3] = test system: GAPDH mRNA in RERF-LC-MA cell; test: GAPDH mRNA expression in cancer cells by qPCR; format: cell-based, human; conditions: RERF-LC-MA cell (only in this cancer cell line), 24 hours after addition
Protocol: as §4
As the cancer cells, those as shown in Example 1 were used.
as §5

[4] = test system: human breast cancer cell line MCF-7; test: Inhibition of proliferation of cancer cells (XTT based Cell Proliferation Kit), MCF-7; conditions: peptide added, incubation at 37° C. for three days; data not shown
Protocol: as §1, §2, §3

[5] = test system: human prostate cancer cell line PC-3; test: Inhibition of proliferation of cancer cells (XTT based Cell Proliferation Kit), PC-3; conditions: peptide added, incubation at 37° C. for three days; data not shown
Protocol: as §1, §2, §3

## GQNGSTPDGSTHFPSWEMAANEPLKTHRE [peptide A, 29-mer peptide derived from the TCTA protein, containing extracellular domain GQN]
[1]
  proliferation of the RERF-LC-MA cells (reduced to): about 85%
[2]
  expression of mRNA of MMP9 in the osteoclasts: no significant difference
  expression of mRNA of MMP14 in the osteoclasts: no significant difference
  expression of mRNA of RECK in the osteoclasts: no significant difference
  expression of mRNA of VEGFR1 in the osteoclasts: no significant difference
[3]
  GAPDH mRNA expression: reduced
[4]
  inhibitory effect on proliferation of the MCF-7 cells: almost no inhibitory effect
[5]
  inhibitory effect on proliferation of the PC-3 cells: almost no inhibitory effect
